ChEMBL document CHEMBL1145308 (Bioorg Med Chem Lett, 2006)

Key:
[1] = molecular target: T1, Sodium- and chloride-dependent glycine transporter 2 (Homo sapiens, UniProt Q9Y345); experiment: (§1) Inhibition of [3H]glycine uptake at GlyT2
T1 sequence (Q9Y345 whole entry): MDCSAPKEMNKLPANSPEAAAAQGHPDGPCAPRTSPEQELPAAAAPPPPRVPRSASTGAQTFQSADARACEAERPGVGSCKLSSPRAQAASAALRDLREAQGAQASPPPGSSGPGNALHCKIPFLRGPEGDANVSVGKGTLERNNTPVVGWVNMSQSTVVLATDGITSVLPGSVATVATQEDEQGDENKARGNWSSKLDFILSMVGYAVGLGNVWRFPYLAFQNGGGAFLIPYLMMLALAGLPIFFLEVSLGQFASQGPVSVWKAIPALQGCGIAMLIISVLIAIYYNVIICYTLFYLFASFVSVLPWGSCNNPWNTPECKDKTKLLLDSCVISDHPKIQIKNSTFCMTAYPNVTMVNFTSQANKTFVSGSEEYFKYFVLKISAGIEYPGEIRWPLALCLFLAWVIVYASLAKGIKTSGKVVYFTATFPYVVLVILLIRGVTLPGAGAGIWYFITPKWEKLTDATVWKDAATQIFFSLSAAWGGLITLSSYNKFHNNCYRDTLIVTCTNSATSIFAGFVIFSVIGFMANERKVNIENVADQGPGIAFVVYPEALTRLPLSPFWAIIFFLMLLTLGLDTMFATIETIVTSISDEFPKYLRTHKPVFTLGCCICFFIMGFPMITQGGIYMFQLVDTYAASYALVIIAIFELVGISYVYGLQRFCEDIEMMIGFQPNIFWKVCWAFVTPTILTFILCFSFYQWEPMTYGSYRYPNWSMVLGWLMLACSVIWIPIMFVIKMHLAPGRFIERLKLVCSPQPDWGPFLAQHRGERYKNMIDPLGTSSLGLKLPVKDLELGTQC

[2] = in vitro; conditions: mouse, microsomes, CL
Description: Intrinsic clearance in mouse microsome

[3] = in vitro; conditions: human, microsomes, CL
Description: Intrinsic clearance in human microsome

[4] = in vitro; conditions: mouse, microsomes, Max Achievable Bioavailability
Description: Maximum achievable bioavailability in mouse microsome

[5] = in vitro; conditions: human, microsomes, Max Achievable Bioavailability
Description: Maximum achievable bioavailability in human microsome

[6] = molecular target: T2, Sodium- and chloride-dependent glycine transporter 1 (Homo sapiens, UniProt P48067); experiment: (§2) Inhibition of [3H]glycine uptake at GlyT1
T2 sequence (P48067 whole entry): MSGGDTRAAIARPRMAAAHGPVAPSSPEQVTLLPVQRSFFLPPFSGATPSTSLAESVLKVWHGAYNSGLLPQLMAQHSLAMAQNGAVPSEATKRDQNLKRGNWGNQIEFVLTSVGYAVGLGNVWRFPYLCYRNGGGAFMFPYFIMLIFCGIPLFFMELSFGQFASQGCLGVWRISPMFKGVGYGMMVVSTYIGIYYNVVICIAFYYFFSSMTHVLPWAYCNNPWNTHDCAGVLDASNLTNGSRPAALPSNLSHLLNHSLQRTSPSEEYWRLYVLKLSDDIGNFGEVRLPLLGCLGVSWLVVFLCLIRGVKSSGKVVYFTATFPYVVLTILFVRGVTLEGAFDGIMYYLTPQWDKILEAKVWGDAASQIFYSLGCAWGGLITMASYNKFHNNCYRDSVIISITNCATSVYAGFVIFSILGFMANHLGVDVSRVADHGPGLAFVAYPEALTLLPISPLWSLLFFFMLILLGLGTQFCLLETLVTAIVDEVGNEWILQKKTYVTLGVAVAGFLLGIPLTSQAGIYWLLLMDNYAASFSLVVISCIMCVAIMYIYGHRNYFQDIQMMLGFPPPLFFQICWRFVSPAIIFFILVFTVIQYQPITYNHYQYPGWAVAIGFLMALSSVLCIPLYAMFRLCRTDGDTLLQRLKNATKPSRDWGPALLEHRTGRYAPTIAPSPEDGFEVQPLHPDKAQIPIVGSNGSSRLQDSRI

[7] = Dissociation constant, pKa of the compound; type: physicochemical
[8] = molecular target: Voltage-gated inwardly rectifying potassium channel KCNH2 (Homo sapiens, UniProt Q12809)
Voltage-gated inwardly rectifying potassium channel KCNH2, sequence (Q12809 whole entry): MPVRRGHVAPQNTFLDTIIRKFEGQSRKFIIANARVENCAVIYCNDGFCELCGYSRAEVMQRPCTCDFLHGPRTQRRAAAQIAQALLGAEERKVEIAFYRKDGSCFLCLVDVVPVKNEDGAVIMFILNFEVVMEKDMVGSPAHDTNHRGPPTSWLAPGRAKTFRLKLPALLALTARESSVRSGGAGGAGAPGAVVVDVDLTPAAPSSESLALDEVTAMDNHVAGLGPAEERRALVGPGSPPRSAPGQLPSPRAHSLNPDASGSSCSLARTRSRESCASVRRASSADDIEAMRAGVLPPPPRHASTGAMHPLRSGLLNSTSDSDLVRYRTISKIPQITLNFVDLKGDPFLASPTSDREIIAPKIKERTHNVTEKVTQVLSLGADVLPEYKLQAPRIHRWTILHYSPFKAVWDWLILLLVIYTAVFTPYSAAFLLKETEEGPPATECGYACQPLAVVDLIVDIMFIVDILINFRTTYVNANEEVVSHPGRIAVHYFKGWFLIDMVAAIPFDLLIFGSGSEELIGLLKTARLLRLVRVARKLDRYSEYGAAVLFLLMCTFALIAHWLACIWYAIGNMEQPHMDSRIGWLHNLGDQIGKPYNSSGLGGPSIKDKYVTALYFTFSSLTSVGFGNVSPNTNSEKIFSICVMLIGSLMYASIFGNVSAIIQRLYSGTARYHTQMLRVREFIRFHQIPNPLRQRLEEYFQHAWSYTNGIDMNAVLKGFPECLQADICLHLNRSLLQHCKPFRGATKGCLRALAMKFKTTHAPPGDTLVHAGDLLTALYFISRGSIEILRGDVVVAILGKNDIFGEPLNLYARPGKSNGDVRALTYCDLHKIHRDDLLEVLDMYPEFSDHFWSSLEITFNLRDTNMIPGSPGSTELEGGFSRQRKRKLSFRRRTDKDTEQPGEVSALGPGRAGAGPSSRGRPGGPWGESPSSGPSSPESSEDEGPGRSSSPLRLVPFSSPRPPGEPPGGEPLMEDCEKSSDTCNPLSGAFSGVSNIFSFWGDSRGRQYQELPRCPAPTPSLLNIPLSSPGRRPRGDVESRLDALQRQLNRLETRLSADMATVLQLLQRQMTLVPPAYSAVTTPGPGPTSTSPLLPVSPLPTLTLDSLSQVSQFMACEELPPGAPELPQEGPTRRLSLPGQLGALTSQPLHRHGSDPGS
Description: Inhibition of hERG potassium channel expressed in CHO cells by whole cell patch clamp method

[9] = molecular target: T3, Sodium- and chloride-dependent glycine transporter 1 (Homo sapiens) (UniProt P48067); experiment: as §2
T3 sequence (whole entry): T2 sequence (P48067 whole entry)

[10] = molecular target: T4, Sodium- and chloride-dependent glycine transporter 2 (Homo sapiens) (UniProt Q9Y345); experiment: as §1
T4 sequence (whole entry): T1 sequence (Q9Y345 whole entry)

[11] = Oral bioavailability in mouse; type: ADME, organism-based; conditions: in vivo
[12] = Clearance in mouse; type: ADME, organism-based; conditions: in vivo
[13] = Half life in mouse; type: ADME, organism-based; conditions: in vivo
[14] = Volume of distribution in mouse; type: ADME, organism-based; conditions: in vivo, read-out: Vss
[15] = Ratio of drug level in brain against plasma in mouse; type: ADME, organism-based; conditions: read-out: BPR

Structure (SMILES): O=C1NCN(c2ccccc2)C12CCN(C1(c3ccccc3)CCCCC1)CC2
- EC50 [1]: > 30 µM
- microsomal CLint [2]: 470 µL/min/mg
- microsomal CLint [3]: 82 µL/min/mg
- Fh [4]: 6%
- Fh [5]: 16%

Structure (SMILES): O=C1NCC(c2ccccc2)C12CCN(C1(c3ccccc3)CCCOC1)CC2 (stereo not given)
- EC50 [6]: 1420 nM
- pKa [7]: 7.1
- IC50 [8]: > 11 µM

Structure (SMILES): O=C1NCC(c2ccccc2)C12CCN(C1(c3ccccc3)CCOCC1)CC2 (stereo not given)
- pKa [7]: 7.71

Structure (SMILES): O=C1NCC(c2ccc(F)cc2)C12CCN(C1(c3ccc(F)cc3)CCCCCC1)CC2 (stereo not given)
- Activity [9]: 245 nM
- Activity [10]: > 30 µM

Structure (SMILES): O=C1NCC(c2ccc(F)cc2)C12CCN(C1(c3ccc(F)cc3)CCCCC1)CC2 (stereo in doubt)
- EC50 [1]: > 30 µM
- bioavailability [11]: 60%
- clearance [12]: 35 mL/min/kg
- half-life [13]: 168 min
- Vd [14]: 7.6 L/kg
- Kp [15]: 3
- pKa [7]: 8.75
- Fh [4]: 98%
- Fh [5]: 84%
